Experimental data as given in publication PMC11111408, “Concurrent inhibition of oncogenic and wild-type RAS-GTP for cancer therapy” (Nature, 2024).
Where “and” joins values, the source holds several entries; their conditions need not be identical. Equal entries are not always repeated. Where two headings read alike, the source gives them in different places.

Key:
[1] = system: KRAS^G12C with secondary switch II pocket mutations; assay: Cellular nano-BRET KRAS:CRAF disruption, KRAS^G12C with secondary SWII mutations; type: cell-based, human; conditions: KRAS^G12C with secondary mutation, 4 h
[2] = system: KRAS(G12C)-mutated PDX model from a NSCLC patient relapsed on sotorasib; assay: Sotorasib resistance xenograft study (KRAS^G12C NSCLC PDX); type: in vivo, mouse; conditions: 10 mg kg^−1 daily oral, day 17 of treatment
[3] = system: AsPC-1 and NCI-H441 cells; assay: pERK (MSD) and proliferation (CTG) in AsPC-1 and NCI-H441 cells, CYPA inhibitor co-treatment or PPIA KO; type: cell-based, human; conditions: for Proliferation, RMC-7977 with or without CYPA inhibitor (panel title not shown): ASPC1, RMC-7977 alone;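 on Proliferation inhibition with CYPA inhibitor competition: luminescence as % of CYPA inhibitor-only control with 3 mM sanglifehrin A competitor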

SMILES: CCn1c(-c2cc(N3CCN(C4CC4)CC3)cnc2[C@H](C)OC)c2c3cc(ccc31)-c1csc(n1)C[C@H](NC(=O)[C@H]1[C@@H]3COC[C@@H]31)C(=O)N1CCC[C@H](N1)C(=O)OCC(C)(C)C2 [RMC-7977]
- effect of switch II pocket binding mutations (R68, Y96, H95) on potency [1]: little or no effect
- inhibition of tumour growth [2]: 90%
- Proliferation inhibition with CYPA inhibitor competition ([3]; ASPC1, RMC-7977 0.0152 nM): 90.9654
- pERK signal remaining (% of control) with CYPA inhibitor competition ([3]; ASPC1, RMC-7977 0.0152 nM): 120.616 and 135.308 and 125.91 and 115.107
- Proliferation inhibition with CYPA inhibitor competition ([3]; ASPC1, RMC-7977 0.0457 nM): 85.8573
- pERK signal remaining (% of control) with CYPA inhibitor competition ([3]; ASPC1, RMC-7977 0.0457 nM): 139.301 and 149.714 and 121.136 and 102.253
- Proliferation inhibition with CYPA inhibitor competition ([3]; ASPC1, RMC-7977 0.41 nM): 72.6185 and 81.3976
- pERK signal remaining (% of control) with CYPA inhibitor competition ([3]; ASPC1, RMC-7977 0.41 nM): 110.343 and 126.372 and 94.9104 and 97.1292
- Proliferation inhibition with CYPA inhibitor competition ([3]; ASPC1, RMC-7977 3.70 nM): 35.3653 and 35.6028
- Proliferation inhibition with CYPA inhibitor competition ([3]; ASPC1, RMC-7977 11.11 nM): 15.7797 and 21.3117
- Proliferation inhibition with CYPA inhibitor competition ([3]; ASPC1, RMC-7977 33.33 nM): 8.746 and 8.58
- Proliferation inhibition with CYPA inhibitor competition ([3]; ASPC1, RMC-7977 100.00 nM): 4.002 and 7.934
- Proliferation, RMC-7977 with or without CYPA inhibitor (panel title not shown) ([3]; 0.0152 nM, 15.2 pM): 91.3484
- Proliferation, RMC-7977 with or without CYPA inhibitor (panel title not shown) ([3]; 0.0457 nM, 45.7 pM): 92.4729
- Proliferation, RMC-7977 with or without CYPA inhibitor (panel title not shown) ([3]; 0.41 nM, 0.00041 µM): 80.9316
- Proliferation, RMC-7977 with or without CYPA inhibitor (panel title not shown) ([3]; 3.70 nM, 0.0037 µM): 50.3479
- Proliferation, RMC-7977 with or without CYPA inhibitor (panel title not shown) ([3]; 11.11 nM, 0.01111 µM): 24.3804
- Proliferation, RMC-7977 with or without CYPA inhibitor (panel title not shown) ([3]; 33.33 nM, 0.03333 µM): 12.3077
- Proliferation, RMC-7977 with or without CYPA inhibitor (panel title not shown) ([3]; 100.00 nM, 0.1 µM): 7.228
- Proliferation, RMC-7977 with or without CYPA inhibitor (panel title not shown) ([3]; 300.00 nM, 0.3 µM): 13.3948
- Proliferation, RMC-7977 with or without CYPA inhibitor (panel title not shown) ([3]; […], 5.08 pM): 94.1273
- activity at 0.0037 µM ([3]; Homo sapiens, ASPC1, read-out: Proliferation inhibition in PPIA KO cells treated with RMC-7977, AsPC-1, 3.70 nM): 33%
- activity at 0.01111 µM ([3]; Homo sapiens, ASPC1, read-out: Proliferation inhibition in PPIA KO cells treated with RMC-7977, AsPC-1, 11.11 nM): 17.6%
- activity at 0.03333 µM ([3]; Homo sapiens, ASPC1, read-out: Proliferation inhibition in PPIA KO cells treated with RMC-7977, AsPC-1, 33.33 nM): 8.78%
- activity at 15.2 pM ([3]; Homo sapiens, ASPC1, read-out: Proliferation, RMC-7977 with or without CYPA inhibitor (panel title not shown), ASPC1, RMC-7977 alone, 0.0152 nM): 102%
- activity at 45.7 pM ([3]; Homo sapiens, ASPC1, read-out: Proliferation, RMC-7977 with or without CYPA inhibitor (panel title not shown), ASPC1, RMC-7977 alone, 0.0457 nM): 92.6%
- activity at 0.00041 µM ([3]; Homo sapiens, ASPC1, read-out: Proliferation, RMC-7977 with or without CYPA inhibitor (panel title not shown), ASPC1, RMC-7977 alone, 0.41 nM): 84.8%
- activity at 0.0037 µM ([3]; Homo sapiens, ASPC1, read-out: Proliferation, RMC-7977 with or without CYPA inhibitor (panel title not shown), ASPC1, RMC-7977 alone, 3.70 nM): 47.4%
- activity at 0.01111 µM ([3]; Homo sapiens, ASPC1, read-out: Proliferation, RMC-7977 with or without CYPA inhibitor (panel title not shown), ASPC1, RMC-7977 alone, 11.11 nM): 29.5%
- activity at 0.03333 µM ([3]; Homo sapiens, ASPC1, read-out: Proliferation, RMC-7977 with or without CYPA inhibitor (panel title not shown), ASPC1, RMC-7977 alone, 33.33 nM): 12.8%
- activity at 0.1 µM ([3]; Homo sapiens, ASPC1, read-out: Proliferation, RMC-7977 with or without CYPA inhibitor (panel title not shown), ASPC1, RMC-7977 alone, 100.00 nM): 7.14%
- activity at 0.3 µM ([3]; Homo sapiens, ASPC1, read-out: Proliferation, RMC-7977 with or without CYPA inhibitor (panel title not shown), ASPC1, RMC-7977 alone, 300.00 nM): 14.9%
- activity at 5.08 pM ([3]; Homo sapiens, ASPC1, read-out: Proliferation, RMC-7977 with or without CYPA inhibitor (panel title not shown), ASPC1, RMC-7977 alone, […]): 101%
- activity at 0.00041 µM ([3]; Homo sapiens, ASPC1, read-out: pERK inhibition in PPIA KO cells treated with RMC-7977, AsPC-1, 0.41 nM): 85.8%
- activity at 5.08 pM ([3]; Homo sapiens, ASPC1, read-out: pERK inhibition in PPIA KO cells treated with RMC-7977, AsPC-1, […]): 109%
- activity at 0.0037 µM ([3]; Homo sapiens, ASPC1, read-out: pERK inhibition in PPIA KO cells treated with RMC-7977, AsPC-1 PPIA KO, 3.70 nM): 109%
- activity at 0.01111 µM ([3]; Homo sapiens, ASPC1, read-out: pERK inhibition in PPIA KO cells treated with RMC-7977, AsPC-1 PPIA KO, 11.11 nM): 110%
- activity at 15.2 pM ([3]; Homo sapiens, NCI-H441, read-out: Proliferation inhibition in PPIA KO cells treated with RMC-7977, NCI-H441, 0.0152 nM): 124%
- activity at 45.7 pM ([3]; Homo sapiens, NCI-H441, read-out: Proliferation inhibition in PPIA KO cells treated with RMC-7977, NCI-H441, 0.0457 nM): 124%
- activity at 0.0037 µM ([3]; Homo sapiens, NCI-H441, read-out: Proliferation inhibition in PPIA KO cells treated with RMC-7977, NCI-H441, 3.70 nM): 33%
